Here are results for four compounds from patent publication US10704076B2, “Multi-tiered high through-put screen for compounds effective against bacterial biofilm and compounds effective for inhibiting and eradicating bacterial biofilm” (University of Cincinnati, priority 2013, dated 2020).

Series [1] deals with P. aeruginosa established biofilm. In words: CLSM, effect of compound on the pre-existing biofilm. Type of series: cell-based, Pseudomonas aeruginosa.
For another series, the system named is P. aeruginosa. The experiment in a line: MIC determination (CLSI, Mueller Hinton broth), planktonic cultures. The series is classed as cell-based, Pseudomonas aeruginosa. The following applies: for MIC: Pseudomonas aeruginosa. On the procedure:
(§1) A standard protocol for determining the MIC of a specific compound as outlined by the Clinical and Laboratory Standards Institute (CLSI) was used, based on growth of the selected bacteria in Mueller Hinton (MH) broth with subsequent 2-fold dilutions of compounds of interest. Following the CLSI protocols, the MIC of each broad spectrum “hit” compound was performed in all 3 bacterial species in both aerobic and anaerobic conditions. All bacteria were grown in MH broth for 18 hrs at 37° C. The cells were then diluted 100-fold into MH broth containing compounds at concentrations ranging from 0.40-50 μM in the presence of either KNO3 or glucose to allow bacterial growth under anaerobic condition. After 24 hrs of incubation, cell growth was measured at OD600 using a SpectraMax 190 Absorbance Microplate Reader.
(§2) The HTS and CLSM assays identified and confirmed compounds that can inhibit biofilms formation in aerobic growth conditions. However, P. aeruginosa and S. epidermidis are capable of growth under anaerobic as well as aerobic conditions. […] The Minimal Inhibitory Concentrations (MIC) of the four broad agent hit compounds under both aerobic and anaerobic conditions of planktonic P. aeruginosa and S. epidermidis cultures were determined to evaluate compound efficacy in different growth conditions. The MICs for A. baumannii were determined only in aerobic conditions. To examine growth in aerobic conditions, bacteria were grown in either Mueller Hinton (MH) media only, MH media in the presence of 1% KNO3, or MH in the presence of 1% glucose. For MIC determinations under anaerobic conditions, growth was examined in MH media with 1% KNO3 or with 1% glucose.

Series [2] concerns differentiated THP-1 cells. In words: LDH cytotoxicity assay. The series is classed as cell-based. The following applies: 48 hr. As to the method: Following identification as an HTS broad spectrum hit and confirmation by CLSM, a cytotoxicity assay was performed on compounds 3, 7, 8 and 11. The lactate dehydrogenase assay (LDH) is commonly used as an enzymatic marker to quantitatively correlate cell death via leakage of the enzyme from dead or dying cells. An LDH assay was used to investigate the toxicity of compounds on A549 and differentiated THP-1 cells. […] Finally, 25 μl of Stop Solution was added, incubated at room temperature for 5 min, and the fluorescence signal was detected using a Synergy 2 Multi-Mode Microplate Reader (Ex. […]/Em. 590). The unit of measurement is the Relative Fluorescence Unit (RFU). The cytotoxicity of the compounds was calculated based on the percentage of compound RFUs measured (Experimental) in comparison to the RFU of the DMSO treated cells as those that were completely lysed (Maximum LDH Release). […]
The cytotoxicity of the broad agent hit compounds was examined in differentiated human THP-1, a human acute monocytic leukemia cell line and A549, a human lung adenocarcinoma epithelial cell line. […] Compounds were assessed at varying concentrations of 0, 260, 290, 300, and 570 μM for compounds 7, 11, 8, and 3, respectively, for the cytotoxicity assays. […]

A further series relates to S. epidermidis. In words: MIC determination (CLSI, Mueller Hinton broth), planktonic cultures. The series is classed as cell-based. The following applies: Staphylococcus epidermidis. As to the method: as §1, §2
In another series the test system is A. baumannii. The series is described as above. The series is classed as cell-based, Acinetobacter baumannii. The following applies: MH, Aerobic; for MIC: Acinetobacter baumannii, read-out: Minimum Inhibition Concentration. On the procedure: as §1, §2
[3] abbreviates: MH with 1% KNO3, Aerobic, read-out: Minimum Inhibition Concentration.
[4] abbreviates: MH with 1% KNO3, Anaerobic, read-out: Minimum Inhibition Concentration.
The mark [5] stands for this setting: MH, Aerobic, read-out: Minimum Inhibition Concentration.
Where [6] appears, read: across all growth conditions (aerobic and anaerobic), read-out: concentration required to inhibit planktonic P. aeruginosa growth (MIC).
[7] abbreviates: MH with 1% Glucose, Aerobic, read-out: Minimum Inhibition Concentration.
The mark [8] stands for this setting: MH with 1% Glucose, Anaerobic, read-out: Minimum Inhibition Concentration.
[9] abbreviates: across all media and conditions (aerobic and anaerobic), read-out: concentration required to inhibit planktonic S. epidermidis growth (MIC).

Converted amounts (≈) assume the structure as drawn. Read-outs that look alike come from different tables or passages of the source. Where only a bound is given, the exact number is not on record here.

For the compound `Cn1sc(Cl)c(C#N)c1=O` [Compound 3, 5-chloro-2-methyl-3-oxo-1,2-thiazole-4-carbonitrile], in series [1], the “effective on established P. aeruginosa biofilm at 100 μM (CLSM, in words)” value is listed as “effective at killing”. Moreover, the MIC in the series with P. aeruginosa (setting [3]) is 33.3 ± 8.33 µM (≈ 5.82 µg/mL); in the series on P. aeruginosa (setting [4]), 25 µM (≈ 4.37 µg/mL); with P. aeruginosa (setting [5]), > 50 µM; in the series with P. aeruginosa (setting [6]) it was ≥ 25 µM; with S. epidermidis (setting [7]) it was 10.4 ± 2.08 µM (≈ 1.82 µg/mL); in the series on S. epidermidis (setting [8]) it was 16.7 ± 4.17 µM (≈ 2.91 µg/mL). For the same compound, the MIC with S. epidermidis (setting [3]) is 25 µM (≈ 4.37 µg/mL); in the series on S. epidermidis (setting [4]), 16.7 ± 4.17 µM (≈ 2.91 µg/mL); in the series on S. epidermidis (setting [5]), 20.8 ± 4.17 µM (≈ 3.64 µg/mL); in the series with S. epidermidis (setting [9]), 10 to 25 µM (≈ 1.75 to 4.37 µg/mL); in the series on A. baumannii it was 5 to 6 µM (≈ 0.873 to 1.05 µg/mL). In series [2] (57 μM), the “cytotoxicity (LDH)” value is on record as 60%. Further, the “cytotoxicity (LDH), change against 57 μM” value in series [2] (570 μM) is recorded as “decreased”. Further, the “Minimum Inhibition Concentration” value in the series on A. baumannii was determined as 6.25 ± 2.21 µM.
`NC(=S)N1CCN(c2cc3c(cc2F)c(=O)c(C(=O)O)cn3C2CC2)CC1` [Compound 7, 7-(4-carbamothioylpiperazin-1-yl)-1-cyclopropyl-6-fluoro-4-oxoquinoline-3-carboxylic acid]: the “effective on established P. aeruginosa biofilm at 100 μM (CLSM, in words)” value in series [1] was “effective”. The MIC is 5.21 ± 1.04 µM (≈ 2.03 µg/mL) in the series on P. aeruginosa (setting [3]); 4.17 ± 1.04 µM (≈ 1.63 µg/mL) with P. aeruginosa (setting [4]); 4.7 ± 1.04 µM (≈ 1.84 µg/mL) in the series with P. aeruginosa (setting [5]); 4 to 5 µM (≈ 1.56 to 1.95 µg/mL) in the series with P. aeruginosa (setting [6]); 5.86 ± 2.42 µM (≈ 2.29 µg/mL) in the series with S. epidermidis (setting [7]); 5.21 ± 1.04 µM (≈ 2.03 µg/mL) in the series on S. epidermidis (setting [8]). Further, the MIC with S. epidermidis (setting [3]) was 10.4 ± 2.08 µM (≈ 4.07 µg/mL); in the series with S. epidermidis (setting [4]), 5.21 ± 1.04 µM (≈ 2.03 µg/mL); in the series on S. epidermidis (setting [5]) it was 8.33 ± 2.08 µM (≈ 3.25 µg/mL); with S. epidermidis (setting [9]) it was 4 to 10 µM (≈ 1.56 to 3.9 µg/mL); in the series on A. baumannii, 16 µM (≈ 6.25 µg/mL). Also, the “Minimum Inhibition Concentration” value in the series with A. baumannii came out at 16.67 ± 4.17 µM.
On to `O=C(O)c1cn(C2CC2)c2c(F)c(N3CC(O)C3)c(F)cc2c1=O` [Compound 8, 1-cyclopropyl-6,8-difluoro-7-(3-hydroxyazetidin-1-yl)-4-oxoquinoline-3-carboxylic acid], for which the “Minimum Inhibition Concentration” value in the series on P. aeruginosa (MH with 1% KNO3, Anaerobic) came out at 7.81 ± 2.71 µM. The MIC is ≤ 20 µM in the series on P. aeruginosa (setting [3]); 7 µM (≈ 2.35 µg/mL) in the series on P. aeruginosa (setting [4]); 10.4 ± 2.08 µM (≈ 3.5 µg/mL) in the series with P. aeruginosa (setting [5]); 0.65 ± 0.13 µM (≈ 0.219 µg/mL) in the series with S. epidermidis (setting [7]); 0.78 ± 0.39 µM (≈ 0.262 µg/mL) with S. epidermidis (setting [8]); 0.78 ± 0.39 µM (≈ 0.262 µg/mL) with S. epidermidis (setting [3]). Moreover, the MIC with S. epidermidis (setting [4]) is 0.39 µM (≈ 0.131 µg/mL); in the series with S. epidermidis (setting [5]) it was 0.65 ± 10.1 µM (≈ 0.219 µg/mL); with S. epidermidis (setting [9]), < 1 µM; with A. baumannii, ~1 µM (≈ 0.336 µg/mL).
In the case of `O=C(O)c1cn(C2CC2)c2c(F)c(-c3ccncc3)c(F)cc2c1=O` [Compound 11, 7-(4-pyridyl)-1-cyclopropyl-6,8-difluoro-4-oxoquinoline-3-carboxylic acid], the MIC in the series with P. aeruginosa (setting [3]) is > 50 µM; in the series on P. aeruginosa (setting [4]), 25 ± 12.5 µM (≈ 8.56 µg/mL); in the series on P. aeruginosa (setting [5]), > 50 µM; in the series on P. aeruginosa (setting [6]), ≥ 25 µM; in the series on S. epidermidis (setting [7]) it was 7.81 ± 2.71 µM (≈ 2.67 µg/mL); in the series with S. epidermidis (setting [8]), 7.29 ± 2.76 µM (≈ 2.5 µg/mL). Moreover, the MIC in the series with S. epidermidis (setting [3]) was 7.81 ± 2.71 µM (≈ 2.67 µg/mL); with S. epidermidis (setting [4]), 4.17 ± 1.04 µM (≈ 1.43 µg/mL); in the series with S. epidermidis (setting [5]), 5.73 ± 3.42 µM (≈ 1.96 µg/mL); with S. epidermidis (setting [9]) it was 4 to 10 µM (≈ 1.37 to 3.42 µg/mL); with A. baumannii, 5 to 6 µM (≈ 1.71 to 2.05 µg/mL). In the series with A. baumannii, the “Minimum Inhibition Concentration” value came to 5.12 ± 1.04 µM.
